Key:
[1] = test system: AsPC-1; experiment: Monolayer antiproliferative MTS assay; type: cell-based, human; details: 2D monolayer
Procedure: (§1) The cells were seeded in 96-well plates (Nunc) with 5,000 or 4,000 cells per well for the cancer cells and NHDF, respectively, and incubated under standard conditions at 37 °C overnight. The culture media were then changed for freshly prepared solutions of the tested compounds in various concentrations. After 72-h incubation the antiproliferative assay was carried out as follows: the solutions of the compounds were changed in each well to 100 µL DMEM without phenol red and 20 µL of CellTiter 96 AQueous One Solution-MTS (Promega). The plates were incubated for 1 h at 37 °C, and the absorbance was then measured at 490 nm using a multi-plate reader (Synergy 4, BioTek). The experiment for each sample was repeated at least three times. The results are presented as the half-maximal inhibitory concentration (IC50) values, which were estimated in comparison to untreated cells (control) and calculated using GraphPad Prism v.8.0 (USA).
(§2) However, the antiproliferative activity of derivative 13 with furan a ring was surprising. […] For this purpose, we selected two pancreatic cancer cell lines: AsPC-1, which is characterised by a deletion of the p53 protein[20] and PANC-1, which carries an R273H mutation. This mutation also occurred in the glioblastoma U-251 cell line[22],[23]. An additional non-adherent line that carries the TP53 mutation that results in the absence of p53 is the K562 leukemic cell line[24]. […] Moreover, 13 was selective toward […], as indicated by its SI values (3.35–9.41). Among all of the tested cell lines, the highest activity of the compound was found against the HCT 116 cells with the wild-type p53 protein (0.069 µM). […] The p53 protein also interacts with the metabolic pathways that are associated with glucose transport[25] as well as small molecules. In light of the above-mentioned facts, we also determined the cytotoxicity of the GLUT inhibitor BAY-876, which is based on a quinoline scaffold. […] Furthermore, BAY-876 was also toxic to normal cells.

[2] = test system: PANC-1; experiment: Monolayer antiproliferative MTS assay; type: cell-based, human; details: 2D monolayer
Procedure: as §1, §2

[3] = test system: U-251; experiment: Monolayer antiproliferative MTS assay; type: cell-based, human
Source text: (§3) The human colon carcinoma cell line HCT 116 with wild-type p53 (p53^+/+) and the human glioblastoma cell line U-251 were obtained from ATCC, while the HCT 116 with a p53 deletion (p53^−/−) was kindly provided by Prof. M. Rusin from the Maria Sklodowska-Curie Memorial Cancer Center and Institute of Oncology in Gliwice, Poland. The human chronic myelogenous leukaemia cell line K562 and the normal human cell dermal fibroblast cell line NHDF were purchased from Sigma-Aldrich and PromoCell, respectively. Both the HCT 116 and U-251 cell lines were cultured in Dulbecco’s modified Eagle’s medium (DMEM) supplemented with 10% inactivated foetal bovine serum (FBS). The DMEM for the NHDF contained 15% non-inactivated FBS. K562 cells were cultured in RPMI medium completed by 10% inactivated FBS. Additionally, the media were supplemented with antibiotics (streptomycin and penicillin – 1% v/v; Sigma-Aldrich). The cell culture was conducted in 75 cm^2 flasks (Nunc) under standard conditions (37 °C, 5% CO2 humidified atmosphere). Furthermore, the cell lines were frequently tested for mycoplasma using the qRT-PCR technique with specific Mycoplasma primers to confirm the lack of contamination.
as §1, §2

[4] = test system: NHDF; experiment: Monolayer MTS cytotoxicity against normal cells; type: cell-based; details: NHDF, normal human dermal fibroblasts, 72-h incubation
Source text: as §3
as §1, with “times.” for “times. The results are presented as the half-maximal inhibitory concentration (IC50) values, which were estimated in comparison to untreated cells (control) and calculated using GraphPad Prism v.8.0 (USA).”
(§4) Additionally, the compounds were also tested for their cytotoxicity against normal cells – human dermal fibroblasts (NHDF).

[5] = test system: GLUT-1; experiment: qRT-PCR, GLUT-1 mRNA expression; type: cell-based, human; details: HCT 116 p53-/-, 24 and 48 h
Procedure: The cells were seeded in 35 mm Petri dishes at a density of 500,000 cells and incubated at 37 °C for 24 h. The total RNA was isolated after incubation with solutions of 13 (0.5 µM and 1.0 µM) for 24 h and 48 h, respectively. The isolation from the samples was carried out according to a TRIzol™ Reagent protocol (Thermo Fisher Scientific). Synthesis of cDNA was performed with 2 µg of total RNA using a GoScript™ Reverse Transcriptase kit (Promega) with Oligo(dT)23 Primers. Real-Time PCR was carried out using a CFX96 Touch™ Real-Time PCR Detection System (Bio-Rad) in 10 µL reaction volume. Each sample contained SsoAdvanced™ Universal SYBR Green Supermix (Bio Rad), a specific primer pair mix (0.5 µM each), and 1 µL of cDNA. […] The obtained data were analysed based on a comparison of the expression of the target genes and normalized to a reference gene (GAPDH) using the Livak-Schmittgen (2^−ΔΔCT) method. […]
To verify the effect of derivative 13 on glucose transporters at the mRNA level, the expression of the genes encoding the best-characterised glucose transporters in cells was quantified in real-time. In addition to GLUT-1, the effect of the tested derivative on changes in the expression of GLUT-3 and GLUT-4 was also evaluated (Fig. 8). […]

[6] = test system: HCT 116 p53-/-; experiment: Monolayer antiproliferative MTS assay; type: cell-based, human; details: 2D monolayer
Source text: as §3
as §1, with “times.” for “times. The results are presented as the half-maximal inhibitory concentration (IC50) values, which were estimated in comparison to untreated cells (control) and calculated using GraphPad Prism v.8.0 (USA).”
as §4

[7] = test system: HCT 116 p53+/+; experiment: Monolayer antiproliferative MTS assay; type: cell-based, human; details: 2D monolayer
Source text: as §3
as §1, with “times.” for “times. The results are presented as the half-maximal inhibitory concentration (IC50) values, which were estimated in comparison to untreated cells (control) and calculated using GraphPad Prism v.8.0 (USA).”
as §4

[8] = Homo sapiens, HCT-116, 72 h, MTS, 72-h incubation

IC50 ([1]; Homo sapiens, ASPC1, 72 h, MTS, 72-h incubation): 160 ± 10 nM
IC50 ([2]; Homo sapiens, PANC-1, 72 h, MTS, 72-h incubation): 35 ± 4 nM
IC50 ([3]; Homo sapiens, U-251, 72 h, 2D monolayer, MTS, 72-h incubation): > 25000 nM
IC50 [6, 8]: 10800 ± 810 nM
IC50 [7, 8]: 1710 ± 270 nM
Structure (SMILES): Cc1c(NC(=O)c2cc(C(N)=O)nc3cc(F)ccc23)c(C(F)(F)F)nn1Cc1ccc(C#N)cc1 [BAY-876]
SI (selectivity index) AsPC-1 ([1]; relative to NHDF): 27.06
SI (selectivity index) PANC-1 ([2]; relative to NHDF): 123.71
SI (selectivity index) U-251 ([3]; 2D monolayer, relative to NHDF): < 0.17
activity in U-251 ([3]; at 25 µM): not active
IC50 [4]: 4330 ± 480 nM
GLUT-1 mRNA level vs control [5]: increased its expression
SI (selectivity index) HCT 116 p53-/- ([6]; relative to NHDF): 0.40
SI (selectivity index) HCT 116 p53+/+ ([7]; relative to NHDF): 2.53
